Experimental data: PMC5221612 (Journal of the American Chemical Society, 2016)
Where two headings read alike, the source gives them in different places.

Tests used:
GT-3 HCV NS3/4A protease [1] = target: GT-3 HCV NS3/4A protease (Hepatitis C virus genotype 3a, UniProt Q81258); assay: biochemical
GT-3 HCV NS3/4A protease [2] = assay: biochemical; set-up: species or system Hepatitis C virus genotype 3a; conditions: for fold change (FC) in Ki, GT-3 relative to GT-1: GT-3 Ki / GT-1 Ki; for loss in affinity in GT-3 relative to GT-1: GT-3 vs GT-1
[3] = system: GT-1a NS3/4A protease with D168Q; assay type: biochemical, Hepatitis C virus genotype 1a; conditions: GT-1a D168Q vs GT-1 WT protease
[4] = system: GT-1a NS3/4A protease with R123T/I132L/D168Q (1a3a); assay: Enzyme inhibition assay, chimeric 1a3a NS3/4A protease; assay type: biochemical, Hepatitis C virus; conditions: 1a3a chimera vs GT-1 WT
GT-1 HCV NS3/4A protease = conditions: read-out: Ki against GT-1 NS3/4A protease; GT-1a wild type; cited from earlier work
[5] = system: HCV GT-3 subgenomic replicon; conditions: viral subgenomic replicon models; range over the named PIs; cited from earlier work
[6] = target: GT-1a NS3/4A protease with D168Q (Hepatitis C virus genotype 1a, UniProt P27958, D1194Q); assay type: biochemical; conditions: GT-1a D168Q

Structure (SMILES)	Ki in GT-3 (in words) (GT-3 HCV NS3/4A protease [1])	fold change (FC) in Ki, GT-3 relative to GT-1 (GT-3 HCV NS3/4A protease [2])	fold change (loss) in potency, D168Q relative to GT-1 WT [3]	loss in potency, R123T/I132L/D168Q (1a3a) relative to GT-1 WT [4]	Ki (GT-1 HCV NS3/4A protease)	loss in activity against GT-3 compared to GT-1 [5]	Ki (GT-3 HCV NS3/4A protease [1]; read-out: Ki against GT-3 NS3/4A protease, GT-3a)	loss in affinity in GT-3 relative to GT-1 (GT-3 HCV NS3/4A protease [2])	inhibition constant against D168Q (in words) [6]	Ki (GT-3 HCV NS3/4A protease [1])
C=C[C@@H]1C[C@]1(NC(=O)[C@@H]1C[C@@H](Oc2ncc(OC)c3ccc(Cl)cc23)CN1C(=O)[C@@H](NC(=O)OC(C)(C)C)C(C)(C)C)C(=O)NS(=O)(=O)C1CC1 [ASV, asunaprevir]	low to submicromolar	975 fold	72 fold	2–3 orders of magnitude	2.7 nM					
COc1ccc2c(O[C@@H]3C[C@H]4C(=O)N[C@]5(C(=O)NS(=O)(=O)C6CC6)C[C@H]5/C=C\CCCCN(C)C(=O)[C@@H]4C3)cc(-c3nc(C(C)C)cs3)nc2c1C [simeprevir]						140- to 1500 fold				
COc1ccc2nc3c(nc2c1)O[C@@H]1C[C@H]2C(=O)N[C@]4(C(=O)NS(=O)(=O)C5(C)CC5)C[C@H]4/C=C/CCCCC[C@H](NC(=O)O[C@@H]4CCC[C@H]4CCCCC3)C(=O)N2C1 [MK-6325]			4 fold	2–3 orders of magnitude	0.1 nM		31 nM	2–3 orders of magnitude	subnanomolar	
CC(C)(C)NC(=O)N[C@H](C(=O)N1C[C@H]2[C@@H]([C@H]1C(=O)NC(CC1CCC1)C(=O)C(N)=O)C2(C)C)C(C)(C)C (stereo partly drawn) [boceprevir]		2.2 fold	0.7 fold		33 nM					71 nM
CC[C@@H]1C[C@]1(NC(=O)[C@@H]1C[C@@H](Oc2cc(-c3csc(NC(C)C)n3)nc3c(Cl)c(OCCN4CCOCC4)ccc23)CN1C(=O)[C@@H](NC(=O)O[C@@H]1C[C@@H]2C[C@@H]2C1)C(C)(C)C)C(=O)O [GS-9451]						140- to 1500 fold				
CC(C)(C)OC(=O)N[C@H]1CCCCC/C=C\[C@@H]2C[C@@]2(C(=O)NS(=O)(=O)C2CC2)NC(=O)[C@@H]2C[C@@H](OC(=O)N3Cc4cccc(F)c4C3)CN2C1=O [DAN, danoprevir]	low to submicromolar	878 fold	30 fold	2–3 orders of magnitude	1 nM	140- to 1500 fold				
C=C[C@@H]1C[C@]1(NC(=O)[C@@H]1C[C@@H]2CN1C(=O)[C@H](C(C)(C)C)NC(=O)O[C@@H]1C[C@H]1CCCCCc1nc3ccc(OC)cc3nc1O2)C(=O)NS(=O)(=O)C1CC1.O [grazoprevir]				2–3 orders of magnitude	0.1 nM	140- to 1500 fold		2–3 orders of magnitude		
CCC[C@H](NC(=O)[C@@H]1[C@H]2CCC[C@H]2CN1C(=O)[C@@H](NC(=O)[C@@H](NC(=O)c1cnccn1)C1CCCCC1)C(C)(C)C)C(=O)C(=O)NC1CC1 [telaprevir]		8 fold	1.2 fold		33 nM					266 nM
CC[C@@H]1C[C@]1(NC(=O)[C@@H]1C[C@@H]2CN1C(=O)[C@H](C(C)(C)C)NC(=O)OCC(C)(C)CCCCc1cccc3c1CN(C3)C(=O)O2)C(=O)NS(=O)(=O)C1CC1 [VAN, vaniprevir]	low to submicromolar	533 fold	44 fold	2–3 orders of magnitude	0.7 nM					
